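Test compounds were applied to cells in 96-well plates for 48 hours at 5 doses. Here, GI50 denotes the concentration required for 50% inhibition of growth. TGI is the concentration that stops growth completely.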

This is an account of results in PubChem BioAssay (NCI).

Holding throughout (assay): NCI anticancer screen, dose series, 48 h
For assay [1], the system named is ACHN renal.
The subject of assay [2] is COLO 205 colon.
In assay [3] the test system is LOX IMVI melanoma.
For assay [4], the system named is MALME-3M melanoma.
The subject of assay [5] is MDA-MB-231 breast.
Assay [6] deals with NCI-H460 lung.
Assay [7] concerns RXF 393 renal.
Assay [8] deals with SNB-19 CNS.
Assay [9] has as its system TK-10 renal.
The test system of assay [10] is UACC-257 melanoma.

Consider `O=C1Nc2ccc(CN3CCOC3=O)cc2/C1=C/c1cc(CN2CCOCC2)c[nH]1`, for which the GI50 in assay [1] is 56 µM; in assay [2], 38.6 µM; in [3], 48.4 µM; in assay [4] it was above 71.5 µM; in assay [5] it was 78.8 µM; in assay [6], 36.2 µM. Further, the GI50 was 18.3 µM in [7], 98.7 µM in assay [8], 65.5 µM in assay [9] and 52 µM in [10]. The TGI in assay [1], in assay [2], in assay [3], in [4], in [5] and in assay [6] was above 100 µM in each case. The TGI in [7] was above 72.3 µM; in assay [8] it was above 100 µM; in assay [9], above 100 µM; in assay [10] it was above 100 µM.
Take `CNC(=O)/C(=C/c1ccc(OC)cc1)c1cc(OC)c(OC)c(OC)c1`: the TGI in [1] is above 100 µM; in assay [2], 7.36 µM; in assay [3], above 100 µM; in [4] it was above 54.5 µM; in assay [5], above 77.9 µM; in [6], 47.5 µM. For the same compound, the TGI in assay [7] is 11.8 µM; in assay [8], 54.8 µM; in [9] it was above 100 µM; in [10], above 90 µM.
With `CC(=O)N1N=C(c2ccc(Nc3nc(Nc4ccc(F)cc4)nc(Nc4ccc(Cl)cc4)n3)cc2)CC1c1ccc(N(C)C)cc1` (stereo not given), the GI50 was 4.03 µM in [1]; 1.81 µM in assay [2]; 3.85 µM in assay [3]; 4.78 µM in assay [4]; 5.66 µM in assay [5]; 6.68 µM in assay [6]. Also, the GI50 is 1.63 µM in assay [7], 6.26 µM in assay [8], 8.59 µM in assay [9] and 7.67 µM in assay [10]. For the same compound, the TGI in [1] was above 58.4 µM; in assay [2], 5.9 µM; in [3], 12.8 µM; in [4] it was 23.8 µM; in assay [5] it was 21 µM; in assay [6] it was 45 µM. For the same compound, the TGI in assay [7] was 5.33 µM; in [8] it was above 56.2 µM; in assay [9], 31 µM; in assay [10], 26.1 µM.
As to `N=C1N=C(N)S/C1=C\c1ccc2ncccc2c1`, the GI50 in [1], in assay [2], in assay [3], in assay [4], in [5] and in assay [6] was above 25 µM in each case. The GI50 in assay [7], in [8], in [9] and in [10] was above 25 µM each time. In addition, the TGI in assay [1], in [2], in [3], in [4], in assay [5] and in assay [6] was above 25 µM throughout. Moreover, the TGI in assay [7], in assay [8], in assay [9] and in assay [10] was above 25 µM in each case.
As to `CC(C)C[C@H]1C(=O)N2CCC[C@H]2[C@]2(O)O[C@](NC(=O)[C@@H]3C=C4c5cccc6[nH]c(Br)c(c56)C[C@H]4N(C)C3)(C(C)C)C(=O)N12`, the TGI in [1] is above 100 µM; in [2], 23.5 µM; in assay [3], above 100 µM; in assay [4], above 100 µM; in assay [5], above 100 µM; in assay [6], above 100 µM. Besides, the TGI in assay [7], in [8], in assay [9] and in assay [10] was above 100 µM in each case.
`CC(C)c1ccc(/C=N/N=C(N)N)cc1`: the GI50 in assay [1] was 11.7 µM; in assay [2] it was 1.72 µM; in assay [3], 3.49 µM; in assay [4] it was 5.56 µM; in assay [5], 7.39 µM; in assay [6] it was 3.89 µM. The GI50 is 3.8 µM in assay [7], 4.77 µM in [8], 12.9 µM in assay [9] and 8.74 µM in [10]. In addition, the TGI is 25.4 µM in [1]; 3.33 µM in [2]; 14.7 µM in assay [3]; 21.1 µM in assay [4]; 21.5 µM in [5]; 14.4 µM in assay [6]. For the same compound, the TGI in assay [7] was 16.6 µM; in assay [8], 17.4 µM; in assay [9], 26.4 µM; in assay [10], 24.1 µM.
